Patent US8183252B2, “Heterocyclic aspartyl protease inhibitors” (Schering Corporation, priority 2007, dated 2012)

What follows are compounds tested against T1, human BACE1 (sproBACE1) (Homo sapiens, UniProt P56817) (assay: BACE-1 Peptide Hydrolysis Assay (HTRF)). Details: not given.
T1 construct: sBACE1, corresponding to amino acids 1-454; made in house; host or cells: Sf9 insect cells (baculovirus), secreted into the medium
Assay type: biochemical
From the text: A HindIII/PmeI fragment from pCDNA4-sBACE1myc/His was blunt ended using Klenow and subcloned into the Stu I site of PFASTBACI(A) (Invitrogen). A sBACE1mycHis recombinant bacmid was generated by transposition in DH10Bac cells (GIBCO/BRL). Subsequently, the sBACE1mycHis bacmid construct was transfected into sf9 cells using CellFectin (Invitrogen, San Diego, Calif.) in order to generate recombinant baculovirus. […] Five milliliters of high titer plaque purified sBACEmyc/His virus was used to infect 1 L of logarithmically growing sf9 cells for 72 hours. Intact cells were pelleted by centrifugation at 3000×g for 15 minutes. The supernatant, containing secreted sBACE1, was collected and diluted 50% v/v with 100 mM HEPES, pH 8.0. The diluted medium was loaded onto a Q-sepharose column. The Q-sepharose column was washed with Buffer A (20 mM HEPES, pH 8.0, 50 mM NaCl).
Proteins, were eluted from the Q-sepharose column with Buffer B (20 mM HEPES, pH 8.0, 500 mM NaCl). The protein peaks from the Q-sepharose column were pooled and loaded onto a Ni-NTA agarose column. The Ni-NTA column was then washed with Buffer C (20 mM HEPES, pH 8.0, 500 mM NaCl). Bound proteins were then eluted with Buffer D (Buffer C+250 mM imidazole).
Reactions were initiated by addition of substrate in a 5 μl aliquot resulting in a total volume of 25 μl. After 3 hr at 30° C. reactions were terminated by addition of an equal volume of 2× stop buffer containing 50 mM Tris-HCl pH 8.0, 0.5 M KF, 0.001% Brij-35, 20 μg/ml SA-XL665 (cross-linked allophycocyanin protein coupled to streptavidin; CIS-Bio International, France) (0.5 μg/well). Plates were shaken briefly and spun at 1200×g for 10 seconds to pellet all liquid to the bottom of the plate before the incubation.
Y=Bottom+(Top-Bottom)/(1+10^((LogEC50−X)*Hill Slope)); X is the logarithm of concentration of I, Y is the percent change in ratio and Y starts at bottom and goes to top with a sigmoid shape.

T1 sequence (P56817 22-454): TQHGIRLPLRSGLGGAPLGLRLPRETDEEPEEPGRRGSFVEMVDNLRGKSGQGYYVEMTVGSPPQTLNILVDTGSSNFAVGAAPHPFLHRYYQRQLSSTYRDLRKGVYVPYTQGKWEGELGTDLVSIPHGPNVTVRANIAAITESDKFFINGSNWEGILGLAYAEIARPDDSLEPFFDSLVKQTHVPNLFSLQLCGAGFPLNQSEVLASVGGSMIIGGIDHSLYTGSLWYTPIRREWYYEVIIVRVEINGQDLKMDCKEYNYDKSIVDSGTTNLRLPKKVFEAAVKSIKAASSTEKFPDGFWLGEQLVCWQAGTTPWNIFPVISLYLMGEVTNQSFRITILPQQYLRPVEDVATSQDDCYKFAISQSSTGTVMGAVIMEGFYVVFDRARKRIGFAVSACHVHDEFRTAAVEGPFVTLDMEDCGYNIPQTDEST

| Compound | Ki |
| --- | --- |
| CC(=O)N1CCC(CN2C(=N)NC(C)(c3cccc(-c4cnn(C)c4)c3)C2=O)CC1 (stereo not shown) | < 5 µM |
| CC(=O)N1CCC(CN2C(=N)NC(C)(c3cccc(-c4cn[nH]c4)c3)C2=O)CC1 (stereo not shown) | < 5 µM |
| CC(=O)N1CCC(CN2C(=N)NC(C)(c3cccc(-c4cccc5[nH]ccc45)c3)C2=O)CC1 (stereo not shown) | < 5 µM |
| COc1ccc(CNc2ccccc2)c(-c2cccc(C3(C)NC(=N)N(CC4CCN(C(C)=O)CC4)C3=O)c2)c1 (stereo not shown) | < 5 µM |
| COc1ccc(C=O)c(-c2cccc(C3(C)NC(=N)N(CC4CCN(C(C)=O)CC4)C3=O)c2)c1 (stereo not shown) | < 5 µM |
| CC(=O)N1CCC(CN2C(=N)NC(C)(c3cccc(-c4ccoc4)c3)C2=O)CC1 (stereo not shown) | < 5 µM |
| CC(=O)N1CCC(CN2C(=N)NC(C)(c3cccc(-c4cccc(O)c4)c3)C2=O)CC1 (stereo not shown) | < 5 µM |

Same assay, conditions: read-out: BACE-1 Ki

| Ki | Compound |
| --- | --- |
| < 5 µM | CN1OCC(C)(c2cccc(-c3cccc(C#N)c3)c2)NC1=N (stereo not shown) |
| < 5 µM | CC(=O)N1CCC(CN2C(=N)N[C@@](c3cccc(-c4cncc(Br)c4)c3)(C3CC3)C2=O)CC1 |
| < 5 µM | CC1(c2cccc(-c3cccc(Cl)c3)c2)NC(=N)N(CC2CCN(C(=O)c3ccccc3)C2)C1=O (stereo not shown) |
| < 5 µM | CN1OCC(C)(c2cc(-c3ccc(F)c(C#N)c3)cs2)NC1=N (stereo not shown) |
| < 5 µM | COc1cncc(-c2cccc(C3(C)NC(=N)N(CC4CC(=O)N(Cc5ccccc5)C4)C3=O)c2)c1 (stereo not shown) |
| < 5 µM | COc1cncc(-c2cccc(C3(C)NC(=N)N(CC4CC(=O)N(c5ccccc5)C4)C3=O)c2)c1 (stereo not shown) |
| < 5 µM | CN1C(=N)N[C@](C)(c2ccc(-c3cc(Cl)cc(C#N)c3)s2)[C@@H](C2CC2)C1=O |
| < 5 µM | CN1C(=N)N[C@](C)(c2nc(-c3cccc(C#N)c3)cs2)CC1=O |
| < 5 µM | CN1C(=N)N[C@](C)(c2csc3c(-c4cccc(C#N)c4)cccc23)CC1=O |
| < 5 µM | CCN1C(=N)N[C@](C)(c2cc(-c3cccc(C#N)c3)cs2)CC1=O |
| < 5 µM | COc1cc(C#N)cc(-c2csc([C@]3(C)CC(=O)N(C)C(=N)N3)c2)c1 |
| < 5 µM | CN1C(=N)N[C@](C)(c2cc(-c3cccc(C#N)c3)nn2C)CC1=O |
| < 5 µM | CC1(c2cccc(-c3cccc(Cl)c3)c2)NC(=N)N(CC2CCN(C(=O)Nc3ccccc3)C2)C1=O (stereo not shown) |
| < 5 µM | CC1(c2cccc(-c3cccc(Cl)c3)c2)NC(=N)N(CC2CCN(C(=O)CC3CCCCC3)C2)C1=O (stereo not shown) |
| < 5 µM | CC1(c2cccc(-c3cccc(Cl)c3)c2)NC(=N)N(CC2CCN(C(=O)C3CCCCC3)C2)C1=O (stereo not shown) |
| < 5 µM | CN1C(=N)N[C@](C)(c2cc(-c3cc(C#N)ccc3Cl)c3sccc3c2)CC1=O |
| < 5 µM | Cc1cc(-c2cccc(C3(C4CC4)NC(=N)N(C)C3=O)c2)ccn1 (stereo not shown) |
| < 5 µM | CN1C(=N)NC(c2cc(-c3cccc(CO)c3)cs2)(C2CC2)C1=O (stereo not shown) |

| Ki | Compound |
| --- | --- |
| < 5 µM | CN1C(=N)NC(C)(c2ccnc(-c3cc(Cl)cc(Cl)c3)c2)C1=O (stereo not shown) |
| < 5 µM | CN1OCC(C)(c2cccc(-c3cccc(Cl)c3)c2)NC1=N (stereo not shown) |
| < 5 µM | CN1OCC(C)(c2cccc(-c3cc(Cl)cc(Cl)c3)c2)NC1=N (stereo not shown) |
| < 5 µM | COc1cc(-c2cccc([C@@]3(C4CC4)NC(=N)N(C)C3=O)c2)ccc1O |
| < 5 µM | CC[C@H]1C(=O)N(C)C(=N)N[C@]1(C)c1cccc(-c2cccc(OC)c2)c1 |
| < 5 µM | CN1C(=N)N[C@@](c2cccc(-c3cc(Cl)cnc3F)c2)(C2CC2)C1=O |
| < 5 µM | CCc1cccc(-n2cc([C@]3(C)CC(=O)N(C)C(=N)N3)cn2)c1 |
| < 5 µM | CN1C(=N)N[C@](C)(c2cccc(-c3cccnc3F)c2)CC1=O |
| < 5 µM | CN1C(=N)N[C@](C)(c2ncc(-c3cccc(Br)c3)s2)CC1=O |
| < 5 µM | CCc1cccc(-c2cc([C@]3(C)CC(=O)N(C)C(=N)N3)nn2C)c1 |
| < 5 µM | CN1C(=N)N[C@](C)(c2cc3cccc(Br)c3s2)CC1=O |
| < 5 µM | CN1C(=N)NC(C)(c2cccc(-c3cc(Cl)ccc3CNC(=O)c3cccnc3)c2)C1=O (stereo not shown) |
| < 5 µM | CN1C(=N)N[C@](C)(c2ccc3c(ccn3C)c2)CC1=O |
| < 5 µM | CN1C(=N)N[C@](C)(c2ccc3c(c2)c(-c2cccs2)cn3C)CC1=O |
| < 5 µM | CC(C)Oc1cccc(-c2csc([C@]3(C)CC(=O)N(C)C(=N)N3)c2)c1 |
| < 5 µM | CSc1cccc(-c2csc([C@]3(C)CC(=O)N(C)C(=N)N3)c2)c1 |
| < 5 µM | CN1C(=N)N[C@](C)(c2csc3c(-c4ccsc4)cccc23)CC1=O |
| < 5 µM | COc1cccc(-c2sc([C@]3(C)CC(=O)N(C)C(=N)N3)cc2C)c1 |

Further lines, the compound ahead of its results:

| Compound | Ki |
| --- | --- |
| COCC1CCCN1C(=O)c1cccc(CN2C(=N)NC(C)(c3ccccc3)C2=O)c1 (stereo not shown) | < 5 µM |
| N=C1NC(c2ccccc2)(c2ccccc2)C(=O)N1CC1CCN(C(=O)Nc2cccc(Cl)c2)CC1 | < 5 µM |
| C[C@H]1C(=O)N(C)C(=N)N[C@]1(C)c1cc(-c2ccc(F)c(C#N)c2)cs1 | < 5 µM |
| CN1C(=N)N[C@](CCc2ccccc2)(C[C@H]2CCC[C@@H](Nc3cccnc3)C2)C1=O | < 5 µM |
| CN1C(=N)N[C@](C)(C[C@H]2CCC[C@@H](Nc3cnc4ccccc4n3)C2)C1=O | < 5 µM |
| CN1C(=N)N[C@](C)(C[C@H]2CCC[C@@H](Nc3cnccn3)C2)C1=O | < 5 µM |
| N=C1NC(c2ccccc2)(c2ccccc2)C(=O)N1Cc1cccc(NC(=O)Cc2cccs2)c1 | < 5 µM |
| CN1C(=N)N[C@](CCC2CCCCC2)(C[C@H]2CCC[C@@H](NC(=O)c3cc(Cl)nc(Cl)c3)C2)C1=O | < 5 µM |
| CC(C)n1cc([C@H]2C(=O)N(C)C(=N)N[C@]2(C)c2cc(-c3cccc(C#N)c3)cs2)cn1 | < 5 µM |
| CN1C(=N)N[C@](C)(c2cc(-c3cc(C#N)ccc3O)cs2)CC1=O | < 5 µM |
| CN1C(=N)NC(C)(c2cc(-c3cccc(C#N)c3)cs2)C(CC=Cc2ccccc2)C1=O (stereo not shown) | < 5 µM |
| COc1ccc2c(c1)CC[C@@]21C(=O)N(C)C(=N)N[C@]1(C)c1cc(-c2cccc(C#N)c2)cs1 | < 5 µM |
| Cc1c(-c2ccc(F)c(C#N)c2)sc([C@@]2(C)CC(=O)N(C)C(=N)N2)c1Cl | < 5 µM |
| CN1C(=N)NC(c2ccccc2)(c2cc(-c3ccc4c(c3)OCO4)cs2)C1=O (stereo not shown) | < 5 µM |
| CN1C(=N)NC(C)(c2ccc(C#N)s2)C(c2ccc(Cl)c(Cl)c2)C1=O (stereo not shown) | < 5 µM |
| CN1C(=N)N[C@](C)(c2ccc3scc(-c4ccc(C#N)s4)c3c2)CC1=O | < 5 µM |
| CN1C(=N)N[C@](C)(c2cc(-c3cccnc3F)cs2)[C@@H](C2CC2)C1=O | < 5 µM |
| CN1C(=N)N[C@](CCC2CCCCC2)(C[C@H]2CCC[C@H](N3CC[C@H](O)C3)C2)C1=O | < 5 µM |
| CN1C(=N)N[C@](C)(c2c(F)cc(F)cc2F)[C@@H](c2ccc(C(C)(F)F)cc2)C1=O | < 5 µM |
| CCC1(c2cc(-c3cccnc3)cs2)CC(=O)N(C)C(=N)N1 (stereo not shown) | < 5 µM |

| Compound | Ki |
| --- | --- |
| CN1C(=N)N[C@](C)(c2ccc3c(cnn3CC3CCCC3)c2)CC1=O | < 5 µM |
| CN1C(=N)N[C@](C)(c2cc(-c3cncc(Cl)n3)cs2)CC1=O | < 5 µM |
| C[C@H]1C(=O)N(C)C(=N)N[C@]1(C)c1cc2ccccc2s1 | < 5 µM |
| CC(C)(C)CC(=O)Nc1cccc(CN2C(=N)NC(c3ccccc3)(c3ccccc3)C2=O)c1 | < 5 µM |
| N=C1NC(c2ccccc2)(c2ccccc2)C(=O)N1Cc1cccc(NC(=O)C2CCCCC2)c1 | < 5 µM |
| N=C1NC(c2ccccc2)(c2ccccc2)C(=O)N1Cc1cccc(NS(=O)(=O)C2CC2)c1 | < 5 µM |
| CCCS(=O)(=O)Nc1cccc(CN2C(=N)NC(c3ccccc3)(c3ccccc3)C2=O)c1 | < 5 µM |
| CS(=O)(=O)Nc1cccc(CN2C(=N)NC(c3ccccc3)(c3ccccc3)C2=O)c1 | < 5 µM |
| CCS(=O)(=O)Nc1cccc(CN2C(=N)NC(c3ccccc3)(c3ccccc3)C2=O)c1 | < 5 µM |
| CN(c1cccc(CN2C(=N)NC(c3ccccc3)(c3ccccc3)C2=O)c1)S(C)(=O)=O | < 5 µM |
| CN1C(=N)N[C@](CCc2ccccc2)(C[C@H]2CCC[C@@H](NC(=O)c3cccnc3)C2)C1=O | < 5 µM |
| CN1C(=N)N[C@](CCC2CCCCC2)(C[C@H]2CCC[C@@H](NC(=O)c3ccccn3)C2)C1=O | < 5 µM |
| CN1C(=N)N[C@](CCC2CCCCC2)(C[C@H]2CCC[C@@H](NC(=O)C3CCCC3)C2)C1=O | < 5 µM |
| CN1C(=N)N[C@](CCC2CCCCC2)(C[C@H]2CCC[C@@H](NC(=O)Cc3ccc4ccccc4c3)C2)C1=O | < 5 µM |
| CN1C(=N)N[C@](CCC2CCCCC2)(C[C@H]2CCC[C@@H](NC(=O)NC(=O)c3ccccc3)C2)C1=O | < 5 µM |
| N=C1NC(c2ccccc2)(c2ccccc2)C(=O)N1C[C@H]1CCCN(C(=O)C2CC2)C1 | < 5 µM |
| CCCC(=O)N1CCC[C@@H](CN2C(=N)NC(c3ccccc3)(c3ccccc3)C2=O)C1 | < 5 µM |
| CCCS(=O)(=O)N1CCC[C@H](CN2C(=N)NC(c3ccccc3)(c3ccccc3)C2=O)C1 | < 5 µM |
| N=C1NC(c2ccccc2)(c2ccccc2)C(=O)N1CC1CCN(C(=O)Cc2cccnc2)CC1 | < 5 µM |
